Measurements reported in patent US8445510B2, “Fused bicyclic kinase inhibitors” (OSI Pharmaceuticals, LLC, priority 2011, dated 2013).

Target: T1, RON (Homo sapiens, UniProt Q04912)
T1 sequence (Q04912 913-1400): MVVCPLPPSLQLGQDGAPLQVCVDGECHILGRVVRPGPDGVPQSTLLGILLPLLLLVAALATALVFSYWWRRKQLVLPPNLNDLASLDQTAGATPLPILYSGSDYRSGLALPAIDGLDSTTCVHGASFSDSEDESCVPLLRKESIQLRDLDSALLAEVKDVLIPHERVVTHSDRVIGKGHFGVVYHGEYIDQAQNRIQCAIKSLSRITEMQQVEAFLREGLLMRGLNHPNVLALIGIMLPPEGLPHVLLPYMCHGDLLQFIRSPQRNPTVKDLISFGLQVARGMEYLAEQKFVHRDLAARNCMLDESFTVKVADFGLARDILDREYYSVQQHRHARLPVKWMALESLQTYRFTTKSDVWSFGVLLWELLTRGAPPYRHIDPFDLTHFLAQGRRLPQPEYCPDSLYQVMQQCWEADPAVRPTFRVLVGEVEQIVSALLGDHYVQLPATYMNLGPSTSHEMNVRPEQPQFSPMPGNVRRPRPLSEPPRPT
Assay: sfRON cell mechanistic assay (HeLa), phosphorylated RON ELISA
Assay type: cell-based
Conditions: HeLa cells transfected with sfRON; inhibition of phosphorylated RON; four hours incubation; at least duplicate experiments; read-out: sfRON mech IC50
Method in brief: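 HeLa cells transiently transfected with sfRON plasmid, then exposed 4 h at 37 °C to a 6-point compound series (typically 10 μM to 3 nM, 0.5% DMSO). Phospho-RON (pY1238/1239) in lysates measured by sandwich ELISA with luminescence. IC50 from 4-parameter fit of percent-of-DMSO-control data, at least duplicate runs.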

SMILES	IC50 [nM]
Cc1c(-c2cnc3[nH]cc([C@H](C)c4c(OC(F)F)ccc(F)c4Cl)c3c2)cnn1C1CCNCC1 [Example 96, 3-{(1S)-1-[2-Chloro-6-(difluoromethoxy)-3-fluorophenyl]ethyl}-5-[5-methyl-1-(piperidin-4-yl)-1H-pyrazol-4-yl]-1H-pyrrolo[2,3-b]pyridine]	≤ 200
CC(=O)N1CCC(n2ncc(-c3cnc4[nH]cc([C@H](C)c5c(OC(F)F)ccc(F)c5Cl)c4c3)c2C)CC1 [Example 97, 1-{4-[4-(3-{(1S)-1-[2-Chloro-6-(difluoromethoxy)-3-fluorophenyl]ethyl}-1H-pyrrolo[2,3-b]pyridin-5-yl)-5-methyl-1H-pyrazol-1-yl]piperidin-1-yl}ethanone]	≤ 200
COc1ccc(F)c(Cl)c1[C@@H](C)c1c[nH]c2ncc(-c3cn([C@H]4CC[C@H](O)CC4)nc3OC)cc12 [Example 99, trans-4-(4-{3-[(1S)-1-(2-chloro-3-fluoro-6-methoxyphenyl)ethyl]-1H-pyrrolo[2,3-b]pyridin-5-yl}-3-methoxy-1H-pyrazol-1-yl)cyclohexanol]	≤ 200
COc1nn([C@H]2CC[C@H](O)CC2)cc1-c1cnc2[nH]cc([C@H](C)c3c(OC(F)F)ccc(F)c3Cl)c2c1 [Example 100, trans-4-[4-(3-{(1S)-1-[2-chloro-6-(difluoromethoxy)-3-fluorophenyl]ethyl}-1H-pyrrolo[2,3-b]pyridin-5-yl)-3-methoxy-1H-pyrazol-1-yl]cyclohexanol]	≤ 200
COc1ccc(F)c(Cl)c1[C@@H](CF)c1c[nH]c2ncc(-c3cnn([C@H]4CC[C@H](O)CC4)c3C)cc12 [Example 121, trans-4-(4-{3-[(1S)-1-(2-Chloro-3-fluoro-6-methoxyphenyl)-2-fluoroethyl]-1H-pyrrolo[2,3-b]pyridin-5-yl}-5-methyl-1H-pyrazol-1-yl)cyclohexanol]	200 to 1000
Cc1c(-c2cnc3[nH]cc([C@@H](CF)c4c(OC(F)F)ccc(F)c4Cl)c3c2)cnn1[C@H]1CC[C@H](O)CC1 [Example 123, trans-4-[4-(3-{(1R)-1-[2-chloro-6-(difluoromethoxy)-3-fluorophenyl]-2-fluoroethyl}-1H-pyrrolo[2,3-b]pyridin-5-yl)-5-methyl-1H-pyrazol-1-yl]cyclohexanol]	200 to 1000
Cc1c(-c2cnc3[nH]cc([C@H](CF)c4c(OC(F)F)ccc(F)c4Cl)c3c2)cnn1[C@H]1CC[C@H](O)CC1 [Example 124, trans-4-[4-(3-{(1S)-1-[2-chloro-6-(difluoromethoxy)-3-fluorophenyl]-2-fluoroethyl}-1H-pyrrolo[2,3-b]pyridin-5-yl)-5-methyl-1H-pyrazol-1-yl]cyclohexanol]	≤ 200
C[C@H](c1c(OC(F)F)ccc(F)c1Cl)c1c[nH]c2ncc(-c3cnc(N4CCC(O)CC4)n3C)cc12 [Example 125, 1-[5-(3-{(1S)-1-[2-Chloro-6-(difluoromethoxy)-3-fluorophenyl]ethyl}-1H-pyrrolo[2,3-b]pyridin-5-yl)-1-methyl-1H-imidazol-2-yl]piperidin-4-ol]	≤ 200
C[C@H](c1c(OC(F)F)ccc(F)c1Cl)c1c[nH]c2ncc(-c3cnc([C@H]4CC[C@H](O)CC4)n3C)cc12 [Example 126, trans-4-[5-(3-{(1S)-1-[2-Chloro-6-(difluoromethoxy)-3-fluorophenyl]ethyl}-1H-pyrrolo[2,3-b]pyridin-5-yl)-1-methyl-1H-imidazol-2-yl]cyclohexanol]	≤ 200
